Key:
[1] = biological target: TNF-α converting enzyme (TACE) (Homo sapiens, UniProt P78536); experiment: TACE inhibition (fluorescent peptidyl substrate); assay type: biochemical; details: read-out: TACE IC50
MMP-1 = biological target: T1, MMP-1 (Homo sapiens, UniProt P03956); experiment: MMP-1 inhibition (thiopeptide or fluorescent peptide substrate); assay type: biochemical; details: read-out: MMP-1 IC50
T1 sequence (P03956 100-469): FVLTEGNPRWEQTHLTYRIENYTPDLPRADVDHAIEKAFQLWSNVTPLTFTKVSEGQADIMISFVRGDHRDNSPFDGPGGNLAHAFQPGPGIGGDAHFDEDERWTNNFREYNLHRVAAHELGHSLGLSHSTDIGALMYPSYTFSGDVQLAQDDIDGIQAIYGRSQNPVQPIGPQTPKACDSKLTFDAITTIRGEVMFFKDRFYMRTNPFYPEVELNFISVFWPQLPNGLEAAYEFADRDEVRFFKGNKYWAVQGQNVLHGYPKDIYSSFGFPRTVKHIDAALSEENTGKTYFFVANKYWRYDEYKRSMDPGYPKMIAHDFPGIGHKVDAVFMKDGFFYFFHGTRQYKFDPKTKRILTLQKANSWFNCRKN

MMP-13 = MMP-13 (Homo sapiens, UniProt P45452); experiment: MMP-13 inhibition (thiopeptide or fluorescent peptide substrate); assay type: biochemical; details: read-out: MMP-13 IC50
MMP-9 = MMP-9 (Homo sapiens, UniProt P14780); experiment: MMP-9 inhibition (thiopeptide or fluorescent peptide substrate); assay type: biochemical; details: read-out: MMP-9 IC50
Sequence of MMP-9 (P14780 94-707): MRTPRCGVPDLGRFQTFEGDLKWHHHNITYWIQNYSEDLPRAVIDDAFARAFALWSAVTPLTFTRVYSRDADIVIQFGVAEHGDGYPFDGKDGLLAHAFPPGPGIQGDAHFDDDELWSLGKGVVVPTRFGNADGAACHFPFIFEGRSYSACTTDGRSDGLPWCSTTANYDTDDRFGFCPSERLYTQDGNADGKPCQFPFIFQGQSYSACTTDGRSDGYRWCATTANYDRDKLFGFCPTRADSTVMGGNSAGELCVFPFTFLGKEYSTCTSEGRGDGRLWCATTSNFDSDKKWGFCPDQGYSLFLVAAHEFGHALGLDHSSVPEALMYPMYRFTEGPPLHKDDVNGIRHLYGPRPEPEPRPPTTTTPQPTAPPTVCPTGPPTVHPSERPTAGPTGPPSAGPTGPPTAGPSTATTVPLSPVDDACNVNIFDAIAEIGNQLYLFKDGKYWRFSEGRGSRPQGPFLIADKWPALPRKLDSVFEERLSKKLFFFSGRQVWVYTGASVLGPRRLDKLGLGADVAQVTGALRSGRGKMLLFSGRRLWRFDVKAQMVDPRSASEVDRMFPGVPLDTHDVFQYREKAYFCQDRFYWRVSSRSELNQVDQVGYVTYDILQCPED

Sequence of TNF-α converting enzyme (TACE) (P78536 215-824, species assumed): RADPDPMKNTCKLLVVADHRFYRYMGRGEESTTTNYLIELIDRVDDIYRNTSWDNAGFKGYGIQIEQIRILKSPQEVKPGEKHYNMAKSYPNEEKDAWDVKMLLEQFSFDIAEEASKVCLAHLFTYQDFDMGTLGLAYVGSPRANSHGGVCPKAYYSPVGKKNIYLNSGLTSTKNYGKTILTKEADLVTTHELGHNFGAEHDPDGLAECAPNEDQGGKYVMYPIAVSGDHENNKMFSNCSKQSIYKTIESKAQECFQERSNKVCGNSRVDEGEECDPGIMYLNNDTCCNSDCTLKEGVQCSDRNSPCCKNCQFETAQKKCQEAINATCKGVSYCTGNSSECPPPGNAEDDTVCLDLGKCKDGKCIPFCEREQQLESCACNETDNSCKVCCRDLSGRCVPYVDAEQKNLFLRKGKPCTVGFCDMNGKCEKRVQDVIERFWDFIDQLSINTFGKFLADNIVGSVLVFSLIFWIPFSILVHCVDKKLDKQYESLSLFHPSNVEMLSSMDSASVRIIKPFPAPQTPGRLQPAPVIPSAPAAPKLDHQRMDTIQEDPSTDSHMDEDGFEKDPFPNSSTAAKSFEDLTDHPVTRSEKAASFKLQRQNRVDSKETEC

| IC50 [1] | IC50 (MMP-1) | melting point | IC50 (MMP-13) | IC50 (MMP-9) | SMILES |
| --- | --- | --- | --- | --- | --- |
| 160 nM | 13 nM | 156 to 158 °C | 2 nM | 5.5 nM | CC#CCOc1ccc(S(=O)(=O)N(C)C(C(=O)NO)C(C)(C)SCc2ccccc2)cc1 (centres unmarked) [Example 153, 2-[(4-but-2-ynyloxy-Benenesulfonyl)-methyl-amino]-N-hydroxy-3-methyl-3-benzylsulfanyl-butyramide] |
| 29 nM | 17 nM | 132 to 135 °C | 4.6 nM | 13 nM | CC#CCOc1ccc(S(=O)(=O)N(C)C(C(=O)NO)C(C)(C)SC)cc1 (centres unmarked) [Example 149, 2-[(4-but-2-ynyloxy-Benenesulfonyl)-methyl-amino]-N-hydroxy-3-methyl-3-methylsulfanyl-butyramide] |
| 64 nM | 1150 nM | 62 °C (dec.) | 60 nM | 37 nM | CC#CCOc1ccc(S(=O)(=O)N(C)C(C(=O)NO)c2ccc(OCCN(C)C(=O)OC(C)(C)C)cc2)cc1 (centres unmarked) [Example 191, tert-Butyl(2-{4-[1-({[4-(2-Butynyloxy)phenyl]sulfonyl}(methyl)amino)-2-(hydroxyamino)-2-oxoethyl)phenoxy]ethyl)-(methyl)carbamate] |
| 49 nM | > 10000 nM | 90 to 92 °C | 126 nM | 859 nM | CC#CCOc1ccc(S(=O)(=O)NC(C(=O)NO)c2ccc(OCCN(C)C(=O)OC(C)(C)C)cc2)cc1 (centres unmarked) [Example 203, tert-Butyl 4-(2-{4-[1-({[4-(2-Butynyloxy)phenyl]sulfonyl}amino)-2-(hydroxyamino)-2-oxoethyl)phenoxy]ethyl)-(methyl)carbamate] |

Second part, the compound before the results:

| SMILES | IC50 [1] | IC50 (MMP-1) | melting point | IC50 (MMP-13) | IC50 (MMP-9) |
| --- | --- | --- | --- | --- | --- |
| CC#CCOc1ccc(S(=O)(=O)N(C)C(C(=O)NO)C(C)(C)SCCCN2CCN(C)CC2)cc1 (centres unmarked) [Example 147, 2-({[4-(2-Butynyloxy)phenyl]sulfonyl)(methyl)amino]-N-hydroxy-3 Methyl-3-{[2(4-methyl-1-ethyl-1-piperazinyl)propyl]sulfanyl}butanamide] | 157 nM | 21 nM | 58 to 62 °C | 5.3 nM | 5.3 nM |
| CC#CCOc1ccc(S(=O)(=O)N(C)[C@@H](C(=O)NO)[C@H]2CC[C@H](O)CC2)cc1 [Example 130] | 23 nM | 169 nM | 195 to 197 °C | 15 nM | 30 nM |
| CC#CCOc1ccc(S(=O)(=O)N(C)C(C(=O)NO)C(C)(C)SCCCN2CCOCC2)cc1 (centres unmarked) [Example 146] | 132 nM | 13 nM | 48 to 52 °C | 3.6 nM | 5.3 nM |
| CC#CCOc1ccc(S(=O)(=O)N(C)C2(C(=O)NO)CCCCC2)cc1 [Example 136, 1-[{[4-(2-Butynyloxy)phenyl]sulfonyl}(methyl)amino]-N-hydroxycyclohexanecarboxamide] | 574 nM | 682 nM | 89 to 92 °C | 1630 nM | 3750 nM |
| CC#CCOc1ccc(S(=O)(=O)N(C)C(C(=O)NO)C(C)(C)SCCN(CC)CC)cc1 (centres unmarked) [Example 142, 2-({[4-(2-Butynyloxy)phenyl]sulfonyl)(methyl)amino]-N-hydroxy-3-methyl-3-{[2-(diethylamino)ethyl]sulfanyl}butanamide] | 131 nM | 72 nM | 55 to 57 °C | 14 nM | 10 nM |
| CC#CCOc1ccc(S(=O)(=O)N(Cc2cccnc2)C2(C(=O)NO)CCCCC2)cc1 [Example 137, 1-[{[4-(2-Butynyloxy)phenyl]sulfonyl}(3-pyridinylmethyl)amino]N-hydroxycyclohexanecarboxamide] | 191 nM | 482 nM | 179 to 181 °C | 48 nM | 79 nM |

Reference: patent US6716833B2, “Acetylenic α-amino acid-based sulfonamide hydroxamic acid tace inhibitors” (priority 1999, dated 2004)
